Test results published in ChEMBL document CHEMBL3868618, “Synthesis and biological evaluation of chalcone derivatives containing aminoguanidine or acylhydrazone moieties” (Bioorg Med Chem Lett, 2016).
Converted amounts (≈) assume the structure as drawn.

Legend:
Staphylococcus aureus [1] = assay: Antibacterial activity against Staphylococcus aureus 503 measured after 24 hrs by two-fold serial dilution method; format: functional; conditions: Staphylococcus aureus, 503, 24 h
Staphylococcus aureus [2] = assay: Antibacterial activity against Staphylococcus aureus 4220 measured after 24 hrs by two-fold serial dilution method; format: functional; conditions: Staphylococcus aureus, 4220, 24 h
Staphylococcus aureus [3] = assay: Antibacterial activity against Staphylococcus aureus 209 measured after 24 hrs by two-fold serial dilution method; format: functional; conditions: Staphylococcus aureus, 209, 24 h
Streptococcus mutans = assay: Antibacterial activity against Streptococcus mutans 3065 measured after 24 hrs by two-fold serial dilution method; format: functional; conditions: Streptococcus mutans, 3065, 24 h
Escherichia coli [4] = assay: Antibacterial activity against Escherichia coli 1924 measured after 24 hrs by two-fold serial dilution method; format: functional; conditions: Escherichia coli, 1924, 24 h
Escherichia coli [5] = assay: Antibacterial activity against Escherichia coli 1356 measured after 24 hrs by two-fold serial dilution method; format: functional; conditions: Escherichia coli, 1356, 24 h
Salmonella typhimurium [6] = assay: Antibacterial activity against Salmonella typhimurium 1926 measured after 24 hrs by two-fold serial dilution method; format: functional, Salmonella enterica subsp. enterica serovar Typhimurium; conditions: Salmonella enterica, 1926, 24 h
Pseudomonas aeruginosa = assay: Antibacterial activity against Pseudomonas aeruginosa 2742 measured after 24 hrs by two-fold serial dilution method; format: functional; conditions: Pseudomonas aeruginosa, 2742, 24 h
Candida albicans [7] = assay: Antifungal activity against Candida albicans 7535 measured after 24 hrs by two-fold serial dilution method; format: functional; conditions: Candida albicans, 7535, 24 h
Staphylococcus aureus [8] = assay: Antibacterial activity against methicillin-resistant Staphylococcus aureus 3167 measured after 24 hrs by two-fold serial dilution method; format: functional; conditions: Staphylococcus aureus, 3167, 24 h
Staphylococcus aureus [9] = assay: Antibacterial activity against methicillin-resistant Staphylococcus aureus 3506 measured after 24 hrs by two-fold serial dilution method; format: functional; conditions: Staphylococcus aureus, 3506, 24 h
Staphylococcus aureus [10] = assay: Antibacterial activity against quinolone-resistant Staphylococcus aureus 3505 measured after 24 hrs by two-fold serial dilution method; format: functional; conditions: Staphylococcus aureus, 3505, 24 h
Staphylococcus aureus [11] = assay: Antibacterial activity against quinolone-resistant Staphylococcus aureus 3519 measured after 24 hrs by two-fold serial dilution method; format: functional; conditions: Staphylococcus aureus, 3519, 24 h
Mus musculus [12] = assay: Antiinflammatory activity in mouse assessed as inhibition of xylene-induced ear edema at 100 mg/kg, ip administered 30 mins before xylene challenge measured after 30 mins relative to DMSO-control; format: functional
Salmonella typhimurium [13] = assay: Potency index, ratio of gatifloxacin MIC to compound MIC against Salmonella typhimurium 1926; format: functional, Salmonella enterica subsp. enterica serovar Typhimurium
Salmonella typhimurium [14] = assay: Potency index, ratio of moxifloxin MIC to compound MIC against Salmonella typhimurium 1926; format: functional, Salmonella enterica subsp. enterica serovar Typhimurium
Candida albicans [15] = assay: Potency index, ratio of fluconazole MIC to compound MIC against Candida albicans 7535; format: functional
Mus musculus [16] = assay: Antiinflammatory activity in mouse assessed as inhibition of xylene-induced ear edema at 100 mg/kg, po administered 1 hr before xylene challenge measured after 3 hrs; format: functional
Mus musculus [17] = assay: Antiinflammatory activity in mouse assessed as inhibition of xylene-induced ear edema at 100 mg/kg, po administered 2 hrs before xylene challenge measured after 3 hrs; format: functional
Mus musculus [18] = assay: Antiinflammatory activity in mouse assessed as inhibition of xylene-induced ear edema at 100 mg/kg, po administered 3 hrs before xylene challenge measured after 3 hrs; format: functional
Mus musculus [19] = assay: Antiinflammatory activity in mouse assessed as inhibition of xylene-induced ear edema at 100 mg/kg, po administered 4 hrs before xylene challenge measured after 3 hrs; format: functional
Mus musculus [20] = assay: Antiinflammatory activity in mouse assessed as inhibition of xylene-induced ear edema at 100 mg/kg, po administered 5 hrs before xylene challenge measured after 3 hrs; format: functional
Mus musculus [21] = assay: Antiinflammatory activity in mouse assessed as inhibition of xylene-induced ear edema at 100 mg/kg, po administered 24 hrs before xylene challenge measured after 3 hrs; format: functional
Mus musculus [22] = assay: Antiinflammatory activity in mouse assessed as inhibition of xylene-induced ear edema at 50 mg/kg, po administered 2 hrs before xylene challenge measured after 3 hrs; format: functional
Mus musculus [23] = assay: Antiinflammatory activity in mouse assessed as inhibition of xylene-induced ear edema at 25 mg/kg, po administered 2 hrs before xylene challenge measured after 3 hrs; format: functional
[24] = Cytotoxicity against human HeLa cells assessed as reduction in cell viability measured after 24 hrs by MTT assay; format: toxicity, cell-based
[25] = Cytotoxicity against human Hep3B cells assessed as reduction in cell viability measured after 24 hrs by MTT assay; format: toxicity, cell-based, Hep 3B2
[26] = Cytotoxicity against human L02 cells assessed as reduction in cell viability measured after 24 hrs by MTT assay; format: toxicity, cell-based

| SMILES | MIC (Staphylococcus aureus [1]) | MIC (Staphylococcus aureus [2]) | MIC (Staphylococcus aureus [3]) | MIC (Streptococcus mutans) | MIC (Escherichia coli [4]) | MIC (Escherichia coli [5]) | MIC (Salmonella typhimurium [6]) | MIC (Pseudomonas aeruginosa) | MIC (Candida albicans [7]) | MIC (Staphylococcus aureus [8]) | MIC (Staphylococcus aureus [9]) | MIC (Staphylococcus aureus [10]) | MIC (Staphylococcus aureus [11]) | inhibition in vivo at 100 mg/kg (Mus musculus [12]) | further results |
| --- | --- | --- | --- | --- | --- | --- | --- | --- | --- | --- | --- | --- | --- | --- | --- |
| N=C(N)N/N=C/c1ccc(/C=C/C(=O)c2cccc(Br)c2)cc1 | 2 µg/mL (≈ 5.39 µM) | 2 µg/mL (≈ 5.39 µM) | 2 µg/mL (≈ 5.39 µM) | 2 µg/mL (≈ 5.39 µM) | 2 µg/mL (≈ 5.39 µM) | 8 µg/mL (≈ 21.5 µM) | 1 µg/mL (≈ 2.69 µM) | 2 µg/mL (≈ 5.39 µM) | 2 µg/mL (≈ 5.39 µM) | 2 µg/mL (≈ 5.39 µM) | 2 µg/mL (≈ 5.39 µM) | 2 µg/mL (≈ 5.39 µM) | 4 µg/mL (≈ 10.8 µM) | 49.7% | Ratio (Salmonella typhimurium [13]): 1 - 2; Ratio (Salmonella typhimurium [14]): 1; Ratio (Candida albicans [15]): 2 |
| Cc1ccc(C(=O)/C=C/c2ccc(/C=N/NC(=N)N)cc2)c(C)c1 | 8 µg/mL (≈ 25 µM) | 4 µg/mL (≈ 12.5 µM) | 8 µg/mL (≈ 25 µM) | 8 µg/mL (≈ 25 µM) | 8 µg/mL (≈ 25 µM) | 8 µg/mL (≈ 25 µM) | 8 µg/mL (≈ 25 µM) | 4 µg/mL (≈ 12.5 µM) | 8 µg/mL (≈ 25 µM) | 8 µg/mL (≈ 25 µM) | 4 µg/mL (≈ 12.5 µM) | 8 µg/mL (≈ 25 µM) | 8 µg/mL (≈ 25 µM) | 64.2% | – |
| COc1ccc2c(c1)c(CC(=O)O)c(C)n2C(=O)c1ccc(Cl)cc1 [INDOMETHACIN] | – | – | – | – | – | – | – | – | – | – | – | – | – | 89.4% | inhibition in vivo at 100 mg/kg (Mus musculus [16]): 12%; inhibition in vivo at 100 mg/kg (Mus musculus [17]): 30.9 to 33.3%; inhibition in vivo at 100 mg/kg (Mus musculus [18]): 18.6%; inhibition in vivo at 100 mg/kg (Mus musculus [19]): 15.6%; inhibition in vivo at 100 mg/kg (Mus musculus [20]): 10.3%; inhibition in vivo at 100 mg/kg (Mus musculus [21]): 5.01%; inhibition in vivo at 50 mg/kg (Mus musculus [22]): 22.8%; inhibition in vivo at 25 mg/kg (Mus musculus [23]): 4.85% |
| N=C(N)N/N=C/c1ccc(/C=C/C(=O)c2ccccc2F)cc1 | 8 µg/mL (≈ 25.8 µM) | 4 µg/mL (≈ 12.9 µM) | 8 µg/mL (≈ 25.8 µM) | 8 µg/mL (≈ 25.8 µM) | 8 µg/mL (≈ 25.8 µM) | 16 µg/mL (≈ 51.6 µM) | 4 µg/mL (≈ 12.9 µM) | 4 µg/mL (≈ 12.9 µM) | 8 µg/mL (≈ 25.8 µM) | 8 µg/mL (≈ 25.8 µM) | 4 µg/mL (≈ 12.9 µM) | 8 µg/mL (≈ 25.8 µM) | 8 µg/mL (≈ 25.8 µM) | 91.7% | – |
| N=C(N)N/N=C/c1ccc(/C=C/C(=O)c2ccc(Cl)cc2Cl)cc1 | 2 µg/mL (≈ 5.54 µM) | 2 µg/mL (≈ 5.54 µM) | 2 µg/mL (≈ 5.54 µM) | 2 µg/mL (≈ 5.54 µM) | 2 µg/mL (≈ 5.54 µM) | 8 µg/mL (≈ 22.1 µM) | 1 µg/mL (≈ 2.77 µM) | 2 µg/mL (≈ 5.54 µM) | 1 µg/mL (≈ 2.77 µM) | 8 µg/mL (≈ 22.1 µM) | 8 µg/mL (≈ 22.1 µM) | 8 µg/mL (≈ 22.1 µM) | 16 µg/mL (≈ 44.3 µM) | 92.5% | inhibition in vivo at 100 mg/kg (Mus musculus [16]): 20.7%; inhibition in vivo at 100 mg/kg (Mus musculus [17]): 34.2 to 43.5%; inhibition in vivo at 100 mg/kg (Mus musculus [18]): 26.4%; inhibition in vivo at 100 mg/kg (Mus musculus [19]): 16.9%; inhibition in vivo at 100 mg/kg (Mus musculus [20]): 11.3%; inhibition in vivo at 100 mg/kg (Mus musculus [21]): 5.52%; inhibition in vivo at 50 mg/kg (Mus musculus [22]): 33.7%; inhibition in vivo at 25 mg/kg (Mus musculus [23]): 17.6%; IC50 at 24 h [24]: 8.7 µg/mL (≈ 24.1 µM); IC50 at 24 h [25]: 15.3 µg/mL (≈ 42.4 µM); IC50 at 24 h [26]: 18.1 µg/mL (≈ 50.1 µM); Ratio (Salmonella typhimurium [13]): 1 - 2; Ratio (Salmonella typhimurium [14]): 1; Ratio (Candida albicans [15]): 2 |
| N=C(N)N/N=C/c1ccc(/C=C/C(=O)c2cccc(Cl)c2)cc1 | 4 µg/mL (≈ 12.2 µM) | 4 µg/mL (≈ 12.2 µM) | 4 µg/mL (≈ 12.2 µM) | 4 µg/mL (≈ 12.2 µM) | 4 µg/mL (≈ 12.2 µM) | 8 µg/mL (≈ 24.5 µM) | 2 µg/mL (≈ 6.12 µM) | 4 µg/mL (≈ 12.2 µM) | 4 µg/mL (≈ 12.2 µM) | 4 µg/mL (≈ 12.2 µM) | 2 µg/mL (≈ 6.12 µM) | 4 µg/mL (≈ 12.2 µM) | 8 µg/mL (≈ 24.5 µM) | 80.7% | – |
| Cc1ccc(C(=O)/C=C/c2ccc(/C=N/NC(=O)c3ccncc3)cc2)c(C)c1 | > 64 µg/mL | > 64 µg/mL | > 64 µg/mL | > 64 µg/mL | > 64 µg/mL | > 64 µg/mL | > 64 µg/mL | > 64 µg/mL | > 64 µg/mL | 64 µg/mL (≈ 167 µM) | 64 µg/mL (≈ 167 µM) | > 64 µg/mL | > 64 µg/mL | 58.5% | – |
| O=C(/C=C/c1ccc(/C=N/NC(=O)c2ccncc2)cc1)c1cccc(Br)c1 | 64 µg/mL (≈ 147 µM) | 64 µg/mL (≈ 147 µM) | 64 µg/mL (≈ 147 µM) | > 64 µg/mL | > 64 µg/mL | > 64 µg/mL | > 64 µg/mL | > 64 µg/mL | > 64 µg/mL | 32 µg/mL (≈ 73.7 µM) | 32 µg/mL (≈ 73.7 µM) | 64 µg/mL (≈ 147 µM) | 64 µg/mL (≈ 147 µM) | 14% | – |
| O=C(N/N=C/c1ccc(/C=C/C(=O)c2ccccc2F)cc1)c1ccncc1 | 64 µg/mL (≈ 171 µM) | 64 µg/mL (≈ 171 µM) | 64 µg/mL (≈ 171 µM) | 16 µg/mL (≈ 42.9 µM) | 64 µg/mL (≈ 171 µM) | 64 µg/mL (≈ 171 µM) | > 64 µg/mL | > 64 µg/mL | > 64 µg/mL | 64 µg/mL (≈ 171 µM) | 64 µg/mL (≈ 171 µM) | 64 µg/mL (≈ 171 µM) | 64 µg/mL (≈ 171 µM) | 51.2% | – |
| COc1ccc(C(=O)/C=C/c2ccc(/C=N/NC(=N)N)cc2)cc1 | 16 µg/mL (≈ 49.6 µM) | 16 µg/mL (≈ 49.6 µM) | 16 µg/mL (≈ 49.6 µM) | 8 µg/mL (≈ 24.8 µM) | 16 µg/mL (≈ 49.6 µM) | 32 µg/mL (≈ 99.3 µM) | 2 µg/mL (≈ 6.2 µM) | 8 µg/mL (≈ 24.8 µM) | 8 µg/mL (≈ 24.8 µM) | 16 µg/mL (≈ 49.6 µM) | 8 µg/mL (≈ 24.8 µM) | 16 µg/mL (≈ 49.6 µM) | 16 µg/mL (≈ 49.6 µM) | 57.2% | – |
| N=C(N)N/N=C/c1ccc(/C=C/C(=O)c2ccc(Br)cc2)cc1 | 4 µg/mL (≈ 10.8 µM) | 2 µg/mL (≈ 5.39 µM) | 4 µg/mL (≈ 10.8 µM) | 4 µg/mL (≈ 10.8 µM) | 2 µg/mL (≈ 5.39 µM) | 32 µg/mL (≈ 86.2 µM) | 2 µg/mL (≈ 5.39 µM) | 2 µg/mL (≈ 5.39 µM) | 2 µg/mL (≈ 5.39 µM) | 8 µg/mL (≈ 21.5 µM) | 2 µg/mL (≈ 5.39 µM) | 4 µg/mL (≈ 10.8 µM) | 16 µg/mL (≈ 43.1 µM) | 68.9% | – |
